Results as given in ChEMBL document CHEMBL4616622, “HSP70 induction by bleomycin metal core analogs” (Bioorg Med Chem Lett, 2020).
Activity calls are given as the source filed them. The rule behind the calls is not given here.

Experiments:
[1] = test system: PC-12; assay: Induction of HSP70 expression in rat PC12 cells at 10 uM incubated for 4 hrs by Western blot analysis; type: functional, cell-based
[2] = test system: PC-12; assay: Induction of HSP70 expression in rat PC12 cells at 10 uM incubated for 4 hrs in presence of human betaNGF by Western blot analysis; type: functional, cell-based
[3] = test system: PC-12; assay: Induction of HSP70 expression in rat PC12 cells at 10 to 20 uM incubated for 4 hrs by Western blot analysis; type: functional, cell-based
[4] = test system: PC-12; assay: Induction of HSP70 expression in rat PC12 cells at 7.5 uM incubated for 4 hrs by Western blot analysis; type: functional, cell-based
[5] = test system: PC-12; assay: Induction of HSP70 expression in rat PC12 cells at 10 uM by Western blot analysis; type: functional, cell-based; settings: TDE = time-dependent effect
[6] = test system: PC-12; assay: Induction of HSP70 expression in rat PC12 cells at 10 uM incubated for 24 hrs by Western blot analysis; type: functional, cell-based
[7] = test system: PC-12; assay: Induction of HSP70 in rat PC12 cells assessed as upregulation of HSP70 mRNA at 10 uM incubated for 4 hrs by qRT-PCR analysis; type: cell-based
[8] = test system: PC-12; assay: Cytotoxicity against rat PC12 cells assessed as reduction in cell viability at 30 uM incubated for 1 day by MTT assay relative to control; type: cell-based; settings: pc-12, 24 h
[9] = test system: PC-12; assay: Induction of HSP70 expression in rat PC12 cells at 5 to 30 uM incubated for 4 hrs by Western blot analysis; type: functional, cell-based

How did the Activity [1] turn out when `COC(=O)[C@H](Cc1c[nH]cn1)NCc1cccc(CN[C@@H](Cc2cn(C(c3ccccc3)(c3ccccc3)c3ccccc3)cn2)C(=O)OC)n1` was run?
Its Activity is “Active”.

What about the Activity [2] of the same compound?
Its Activity is “Active”.

Which Activity [1] does the source give for `COC(=O)[C@H](Cc1c[nH]cn1)NCc1cc(N(C)C)cc(CN[C@@H](Cc2cn(C)cn2)C(=O)OC)n1` here?
Its Activity is “inactive”.

With `COC(=O)[C@H](Cc1c[nH]cn1)NCc1cccc(CN[C@@H](Cc2cn(C(c3ccccc3)(c3ccccc3)c3ccccc3)cn2)C(=O)OC)c1` as the compound, how does the Activity [1] read?
The Activity was “inactive”.

For `COC(=O)[C@H](Cc1cn(C(c2ccccc2)(c2ccccc2)c2ccccc2)cn1)NCc1cc(N(C)C)cc(CN[C@@H](Cc2cn(C(c3ccccc3)(c3ccccc3)c3ccccc3)cn2)C(=O)OC)n1`, which Activity [1] is on record?
The Activity was “inactive”.

For `COC(=O)[C@H](Cc1c[nH]cn1)NCc1cc(N(C)C)cc(CN[C@@H](Cc2cn(C(c3ccccc3)(c3ccccc3)c3ccccc3)cn2)C(=O)OC)n1`, which Activity [3] is on record?
Its Activity is “Active”.

And the Activity [4]?
The Activity was “inactive”.

And the Activity [5]?
Its Activity is “Tde”.

What about the Activity [6] of the same compound?
The Activity was “Active”.

And the Activity [7]?
The Activity was “Active”.

And the Activity [8]?
The Activity was > 50%.

What about the Activity [1] of the same compound?
Its Activity is “Active”.

What about the Activity [2] of the same compound?
The Activity was “Active”.

How did the Activity [1] turn out when `COC(=O)[C@H](Cc1c[nH]cn1)NCc1cc(N(C)C)cc(CN[C@@H](Cc2cn(Cc3ccccc3)cn2)C(=O)OC)n1` was run?
The Activity was “inactive”.

For `COC(=O)[C@H](Cc1cn(Cc2ccccc2)cn1)NCc1cc(N(C)C)cc(CN[C@@H](Cc2cn(Cc3ccccc3)cn2)C(=O)OC)n1`, which Activity [1] is on record?
The Activity was “inactive”.

With BLEOMYCIN as the compound, how does the Activity [9] read?
The Activity was “inactive”.

And the Activity [1]?
The Activity was “inactive”.

How did the Activity [1] turn out when TEPRENONE was run?
Its Activity is “inactive”.

Which Activity [1] does the source give for `COC(=O)[C@H](Cc1cn(C)cn1)NCc1cc(N(C)C)cc(CN[C@@H](Cc2cn(C)cn2)C(=O)OC)n1` here?
Its Activity is “inactive”.
